Emax, EC50 and Max efficacy data for 31 compounds are collected here from patent US20250092030A1, “ENHANCERS OF PARTICULATE GUANYLYL CYCLASE RECEPTOR A” (Mayo Foundation for Medical Education and Research, priority 2023, published 2025).

This assay has as its target T1, particulate guanylyl cyclase receptor A (pGC-A) (Homo sapiens, UniProt P16066).
T1 construct: expressed in transfected cells; host or cells: HEK293
T1 sequence (P16066 33-1061): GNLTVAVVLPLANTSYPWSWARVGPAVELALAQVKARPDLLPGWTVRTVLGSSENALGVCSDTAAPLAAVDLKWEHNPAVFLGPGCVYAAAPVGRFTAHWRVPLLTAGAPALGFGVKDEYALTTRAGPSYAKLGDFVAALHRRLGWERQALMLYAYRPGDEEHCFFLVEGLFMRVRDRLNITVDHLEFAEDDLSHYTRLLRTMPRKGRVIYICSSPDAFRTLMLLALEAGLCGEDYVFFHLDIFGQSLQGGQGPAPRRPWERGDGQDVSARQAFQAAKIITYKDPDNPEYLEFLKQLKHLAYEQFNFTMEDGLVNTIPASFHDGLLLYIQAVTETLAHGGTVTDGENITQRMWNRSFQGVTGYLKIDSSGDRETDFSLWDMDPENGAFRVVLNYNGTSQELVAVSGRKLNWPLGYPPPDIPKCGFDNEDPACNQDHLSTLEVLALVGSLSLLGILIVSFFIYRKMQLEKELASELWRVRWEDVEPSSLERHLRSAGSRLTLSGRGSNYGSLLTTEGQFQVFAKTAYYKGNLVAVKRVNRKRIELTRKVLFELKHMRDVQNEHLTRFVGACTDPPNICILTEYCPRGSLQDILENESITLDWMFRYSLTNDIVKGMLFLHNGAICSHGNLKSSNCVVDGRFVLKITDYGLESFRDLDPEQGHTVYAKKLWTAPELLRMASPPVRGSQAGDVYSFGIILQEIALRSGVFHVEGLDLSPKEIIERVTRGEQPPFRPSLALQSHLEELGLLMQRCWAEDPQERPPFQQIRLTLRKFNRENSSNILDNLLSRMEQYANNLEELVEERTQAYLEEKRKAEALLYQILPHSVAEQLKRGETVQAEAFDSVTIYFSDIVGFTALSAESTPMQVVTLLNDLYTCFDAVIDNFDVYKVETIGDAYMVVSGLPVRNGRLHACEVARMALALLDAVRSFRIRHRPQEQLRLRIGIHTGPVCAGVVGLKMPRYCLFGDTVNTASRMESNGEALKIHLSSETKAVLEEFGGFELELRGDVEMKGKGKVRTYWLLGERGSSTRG
T1 sequence (P01160 124-151 partner limits assumed): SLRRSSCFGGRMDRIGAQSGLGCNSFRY
The experiment in a line: cGMP production by HTRF in HEK293 cells overexpressing pGC-A, with ANP. It is filed as cell-based. To be noted: for Emax: HEK293, HEK293 cells overexpressing pGC-A, read-out: Max efficacy; for Emax / Max efficacy: cGMP normalized to maximal amount produced by an EC80 concentration of ANP; for EC50 / Max efficacy: HEK293 cells overexpressing pGC-A; for EC50: test compound plus EC20 concentration of ANP, cGMP by HTRF. The text has this: Assay: Generally, the assay monitors the production of cGMP, the second messenger generated by pGC-A, by Time-Resolved Florescence (HTRF) in HEK293 cells overexpressing the pGC-A. pGC-A suspension cells were stimulated in the presence of the test compound and an EC20 concentration of ANP. The quantity of cGMP was detected by competitive immunoassay using Eu^3+ cryptate-labeled anti-cGMP and d2-labeled cGMP and normalized to maximal amount produced by an EC80 concentration of ANP. Compound EC50 values were determined in the primary assay, in the presence or absence of ANP, to determine mode of action as positive modulators and tested for selectivity in the same assay platform but in HEK cells overexpressing the particulate guanylyl cyclase B receptor (pGC-B), of which CNP is the endogenous ligand.
Assay details: 20 nL of 10 μM test compound in DMSO was added to columns 5-48 of 1536 well white high base screening plates (Corning, New York, NY) cells using 550 ECHO acoustic dispenser (Labcyte, San Jose, CA). Alpha-atrial natriuretic peptide (ANP) (Phoenix Pharmaceutics) was prepared as stock aliquots at 5 μM in PBS with 0.1% BSA. An approximate […] concentration of ANP ([…]) in assay buffer (HBSS containing 5 mM HEPES and 0.05% BSA) was added to columns 3-48 at a volume of 1 μL. Assay buffer only was added to column 1 and assay buffer containing a saturating concentration of ANP (5 nM) was added to column 2. HEK293 cells overexpressing GC-A were resuspended in assay media (OptimMem media containing 2% Heat-inactivated Fetal bovine serum and L-glutamine) at a density of 6×10^5 cells/mL and 2 μL were plated in screening plates (1200 cells/well) in suspension using a Bioraptr 2. Plates were spun at 1000 rpm for 1 min and incubated for 30 min at room temperature. 1.5 μL d2-labeled cGMP followed by 1.5 μL Eu^3+ cryptate-labeled anti-cGMP cGMP detection kit (CiBio; #62GM2PEC) prepared according to manufacturer's protocol were added to all wells using a Bioraptr 2 and TR-FRET signal was detected on an EnVision detector (PerkinElmer). Wells treated with 0.3% DMSO only serve as blank controls (column 1); wells treated with 0.3% DMSO and 5 nM ANP (columns 2) serve as positive controls and wells treated with 0.3% DMSO and […] ANP (columns 3-4) serve as negative controls.

Values joined by “and” are separate entries in the source; they are usually repeats but may differ in a detail not shown here. Equal entries are not always repeated. Some results are limits rather than exact numbers.

Take `N[C@H]1CCCC(C(=O)Nc2nc3c(F)cc(F)cc3s2)C1` (stereo partly shown) [210C]: the Emax worked out at 92%.

Turning to `N[C@H]1CCC[C@H](C(=O)Nc2nc3c(F)cc(F)cc3s2)C1` [210C], the concentration giving a half-maximal response (EC50) – broadly, the concentration needed to bring the measured effect to its halfway point – was 1.9 µM.

For `N[C@@H]1CCC[C@@H](C(=O)Nc2nc3c(F)cc(F)cc3s2)C1` [210T], the Emax stood at 86% and the EC50 was 0.5 µM.

As for `CN(C)CCN1CCCC(C(=O)Nc2nc3c(F)cc(F)cc3[nH]2)C1` (stereo not shown) [249a], the EC50 is more than 5 µM.

Take `O=C(Nc1nc2c(F)cc(F)cc2[nH]1)C1CCCNC1` (stereo not shown) [249b]: the Emax came out at 72%.

In the case of `CN(C)CCN1CCCC(C(=O)Nc2nc3c(C(F)(F)F)cccc3s2)C1` (stereo not shown) [compound 002], the EC50 was more than 10 µM.

`CN(C)CCN1CCCC(C(=O)Nc2nc3c(-c4ccccc4)cccc3s2)C1` (stereo not shown) [compound 003]: the concentration giving a half-maximal response (EC50) is more than 10 µM.

Turning to `CN(C)CCN1CCCC(C(=O)Nc2nc3c(Cc4ccccc4)cccc3s2)C1` (stereo not shown) [compound 004], the 50% effective concentration (EC50) is more than 10 µM.

As for `Cc1cccc2sc(NC(=O)C3CCCN(CCN(C)C)C3)nc12` (stereo not shown) [compound 005], the 50% effective concentration (EC50) was more than 10 µM.

With `COc1cccc2sc(NC(=O)C3CCCN(CCN(C)C)C3)nc12` (stereo not shown) [compound 006], the EC50 is more than 10 µM.

As for `CN(C)CCN1CCCC(C(=O)Nc2nc3c(C#N)cccc3s2)C1` (stereo not shown) [compound 007], the Emax is 41% and the EC50 is 0.6 µM.

As for `CN(C)CCN1CCCC(C(=O)Nc2nc3cc(F)ccc3s2)C1` (stereo not shown) [compound 010], the EC50 was more than 10 µM.

In the case of `CN(C)CCN1CCCC(C(=O)Nc2nc3cc(Cl)ccc3s2)C1` (stereo not shown) [compound 011], the 50% effective concentration (EC50) was more than 10 µM.

Consider `COc1ccc2sc(NC(=O)C3CCCN(CCN(C)C)C3)nc2c1` (stereo not shown) [compound 013], for which the EC50 is more than 10 µM.

Regarding `CN(C)CCN1CCCC(C(=O)Nc2nc3ccc(F)cc3s2)C1` (stereo not shown) [compound 015], the EC50 was more than 10 µM.

On to `CN(C)CCN1CCCC(C(=O)Nc2nc3ccc(Cl)cc3s2)C1` (stereo not shown) [compound 016], for which the Emax turned out to be 94% and the concentration giving a half-maximal response (EC50) turned out to be 9.5 µM.

With `Cc1ccc2nc(NC(=O)C3CCCN(CCN(C)C)C3)sc2c1` (stereo not shown) [compound 017], the half-maximal effective concentration (EC50) was more than 10 µM.

On to `COc1ccc2nc(NC(=O)C3CCCN(CCN(C)C)C3)sc2c1` (stereo not shown) [compound 018], for which the EC50 was more than 10 µM.

`CN(C)CCN1CCCC(C(=O)Nc2nc3c(F)cc(C(F)(F)F)cc3s2)C1` (stereo not shown) [compound 019]: the EC50 was more than 5 µM.

Take `Cc1cc(F)c2nc(NC(=O)C3CCCN(CCN(C)C)C3)sc2c1` (stereo not shown) [compound 020]: the Emax is 101% and the 50% effective concentration (EC50) was determined as 0.9 µM.

Turning to `COc1cc(F)c2nc(NC(=O)C3CCCN(CCN(C)C)C3)sc2c1` (stereo not shown) [compound 021], the Max efficacy worked out at 77%; the concentration for a half-maximal effect (EC50) was 6.7 µM and 1.7 µM.

On to `CN(C)CCN1CCCC(C(=O)Nc2nc3c(F)cc(-c4ccccc4)cc3s2)C1` (stereo not shown) [compound 022], for which the EC50 is more than 5 µM.

As for `COC(=O)c1cc(F)c2nc(NC(=O)C3CCCN(CCN(C)C)C3)sc2c1` (stereo not shown) [compound 023], the EC50 was more than 5 µM.

For the compound `CCOc1cc(F)c2nc(NC(=O)C3CCCN(CCN(C)C)C3)sc2c1` (stereo not shown) [compound 026], the EC50 was more than 5 µM.

Consider `COCc1cc(F)c2nc(NC(=O)C3CCCN(CCN(C)C)C3)sc2c1` (stereo not shown) [compound 029], for which the EC50 is more than 5 µM.

Turning to `COCc1cc(F)c2nc(NC(=O)C3CCCNC3)sc2c1` (stereo not shown) [compound 030], the concentration for a half-maximal effect (EC50) is more than 5 µM.

Take `CN(C)CCN1CCCC(C(=O)Nc2nc3cccc(F)c3s2)C1` (stereo not shown) [compound 032]: the Emax is 85% and the half-maximal effective concentration (EC50) is 4.3 µM.

As for `CN(C)CCN1CCCC(C(=O)Nc2nc3cccc(Cl)c3s2)C1` (stereo not shown) [compound 033], the Emax amounted to 82%; the Max efficacy turned out to be 63%; the concentration giving a half-maximal response (EC50) was 2.2 µM and 1.2 µM.

In the case of `Cc1cccc2nc(NC(=O)C3CCCN(CCN(C)C)C3)sc12` (stereo not shown) [compound 034], the Emax was 99% and the EC50 came to 5.9 µM.

For `CN(C)CCN1CCCCC1C(=O)Nc1nc2c(F)cc(F)cc2s1` (stereo not shown) [compound 037], the Emax was 96%.

For `CN1CCC(N2CCCCC2C(=O)Nc2nc3c(F)cc(F)cc3s2)C1` (stereo not shown) [compound 038], the EC50 was more than 5 µM.
